# Measured values from paper PMC11239005, “Preclinical studies of RA475, a guanidine-substituted spirocyclic candidate RPN13/ADRM1 inhibitor for treatment of ovarian cancer” (PLOS ONE, 2024).
# How the values were obtained:
# [1] = Mouse plasma protein binding, equilibrium dialysis; assay type: in vitro ADME; settings: pH 7.4, dialysis 5 h
# Protocol: (§1) The assay was performed in a multiple-use 96-well dialysis unit (HTD96b dialyzer). Each individual well unit consisted of 2 chambers separated by a vertically aligned dialysis membrane of predetermined pore size (MWCO 12–14 kDa). 120 μL of non-diluted plasma spiked with the compound (1 μM, final DMSO concentration 1%) was added to one chamber, and the same volume of PBS buffer pH 7.4 to the other chamber. The HTD96b dialyzer was covered with adhesive sealing film and incubated 5 h at 37°C while shaking at 100 rpm. For sample preparation, an aliquot of the contents of each chamber was mixed with the same volume of the blank opposite matrix. In order to define non-specific loss of the compound during this assay, a standard solution was created by mixing an aliquot of spiked plasma with blank buffer without dialysis. Two aliquots of the standard solution were incubated at 37°C, shaking at 100 rpm for 5 h (recovery samples). The other two aliquots were immediately diluted with acetonitrile and stored at 4°C until analysis (stability samples). All samples were diluted 5-fold with internal standard diluted in 100% methanol with subsequent plasma proteins sedimentation by centrifuging at 6000 rpm for 5 minutes. Supernatants were analyzed using LC-MS/MS. The percentage of plasma protein bound compound, recovery and stability were calculated using following equations. […]
# [2] = Stability in murine plasma; assay type: in vitro ADME, mouse; settings: 10 μM, 1 h at 37°C
# Protocol: Human and mouse liver microsomes and NADPH regenerating system solutions were purchased from Corning Life Sciences (Tewsbury, MA). Human and mouse K2EDTA-treated plasma was purchased from BioIVT (Westbury, NY). Metabolic studies in liver microsomes (0.125 mg/mL) were conducted in 1x PBS (pH 7.4), NADPH-generating system, and 10 μM RA475 in a final volume of 250 μL. An incubation mixture with or without NADPH-generating system, as well as a neat solution prepared without microsomes and NADPH-generating system was used. RA475 was added at the same concentration level into human and mouse EDTA plasma. All reactions were initiated with the addition of RA475. Incubations were performed in glass tubes maintained at 37°C in a shaker bath. At 0, 30, and 60 min, 10 μL samples were withdrawn from the reaction mixture, and 0.5 mL of acetonitrile containing internal standard was added to each. Samples were vortex-mixed and subjected to centrifugation for 5 min at 1430 x g. A 10 μL aliquot of the supernatant was injected onto the LC-MS/MS instrument for qualitative analysis using a temperature-controlled autosampling device operating at 5°C (See Pharmacokinetic section).
# [3] = Human plasma protein binding, equilibrium dialysis; assay type: in vitro ADME; settings: pH 7.4, dialysis 5 h
# Protocol: as §1
structure (smiles),measurement,setting,value
"Cl.Cl.N#Cc1ccc(/C=C2/C(=O)/C(=C/c3ccc(C#N)cc3)C23CCN(C(=N)N)CC3)cc1 [RA475, 1,3-bis((E)-4-cyanobenzylidene)-2-oxo-7-azaspiro[3.5]nonane-7-carboximidamide dihydrochloride]","fraction unbound at 5 h, 1 μM",[1],< 0.01
same,stability in plasma,[2],did not degrade
same,"fraction unbound at 5 h, 1 μM",[3],0.009
